# Test results: PMC8662647, “Two Functional Epithelial Sodium Channel Isoforms Are Present in Rodents despite Pronounced Evolutionary Pseudogenization and Exon Fusion” (Molecular Biology and Evolution, 2021)
# What was measured:
# [1] = molecular target: T1, guinea pig αβγ-ENaC (Cavia porcellus, UniProt B8QP44+H0UT09+H0VNV9); experiment: two-electrode voltage clamp, Xenopus oocytes, concentration-response; type: cell-based
# T1 construct: gene SCNN1A; heterotrimer in Xenopus laevis oocytes; printed GenBank ids are 5'RACE products
# T1 sequence (B8QP44 1-656): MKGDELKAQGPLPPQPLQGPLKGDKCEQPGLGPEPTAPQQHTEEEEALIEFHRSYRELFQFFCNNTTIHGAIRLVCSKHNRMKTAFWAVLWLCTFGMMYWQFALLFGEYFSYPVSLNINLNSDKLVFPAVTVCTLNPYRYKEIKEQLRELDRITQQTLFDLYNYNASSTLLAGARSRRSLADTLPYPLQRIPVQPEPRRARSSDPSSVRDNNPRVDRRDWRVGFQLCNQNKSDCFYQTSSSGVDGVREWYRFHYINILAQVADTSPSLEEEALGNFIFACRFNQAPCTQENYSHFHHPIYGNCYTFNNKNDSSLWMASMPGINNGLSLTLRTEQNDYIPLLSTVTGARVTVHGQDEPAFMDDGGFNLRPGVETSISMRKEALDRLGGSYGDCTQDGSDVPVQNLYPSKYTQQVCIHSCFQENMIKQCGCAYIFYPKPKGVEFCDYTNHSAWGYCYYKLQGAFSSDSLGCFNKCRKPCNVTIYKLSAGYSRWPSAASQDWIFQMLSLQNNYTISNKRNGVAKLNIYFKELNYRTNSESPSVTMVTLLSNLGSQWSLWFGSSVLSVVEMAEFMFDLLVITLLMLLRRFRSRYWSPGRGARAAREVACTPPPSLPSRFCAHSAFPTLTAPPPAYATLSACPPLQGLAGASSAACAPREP
# T1 sequence (H0VNV9 1-640): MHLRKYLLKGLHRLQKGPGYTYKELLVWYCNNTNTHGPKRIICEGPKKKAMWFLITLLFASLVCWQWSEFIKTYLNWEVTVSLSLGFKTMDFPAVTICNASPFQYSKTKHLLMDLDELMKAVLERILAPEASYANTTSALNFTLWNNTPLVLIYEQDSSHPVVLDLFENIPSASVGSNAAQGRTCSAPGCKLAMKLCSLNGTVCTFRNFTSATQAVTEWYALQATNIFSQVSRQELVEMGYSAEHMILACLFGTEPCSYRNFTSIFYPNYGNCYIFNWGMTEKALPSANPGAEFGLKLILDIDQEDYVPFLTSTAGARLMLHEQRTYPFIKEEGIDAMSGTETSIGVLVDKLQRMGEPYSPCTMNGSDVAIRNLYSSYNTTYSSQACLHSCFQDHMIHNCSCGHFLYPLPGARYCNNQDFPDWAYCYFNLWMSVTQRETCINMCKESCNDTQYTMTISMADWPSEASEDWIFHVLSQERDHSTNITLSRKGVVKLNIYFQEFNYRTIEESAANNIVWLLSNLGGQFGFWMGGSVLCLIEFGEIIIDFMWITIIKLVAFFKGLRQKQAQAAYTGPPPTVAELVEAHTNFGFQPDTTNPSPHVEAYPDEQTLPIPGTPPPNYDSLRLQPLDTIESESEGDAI
# T1 sequence (H0UT09 1-653): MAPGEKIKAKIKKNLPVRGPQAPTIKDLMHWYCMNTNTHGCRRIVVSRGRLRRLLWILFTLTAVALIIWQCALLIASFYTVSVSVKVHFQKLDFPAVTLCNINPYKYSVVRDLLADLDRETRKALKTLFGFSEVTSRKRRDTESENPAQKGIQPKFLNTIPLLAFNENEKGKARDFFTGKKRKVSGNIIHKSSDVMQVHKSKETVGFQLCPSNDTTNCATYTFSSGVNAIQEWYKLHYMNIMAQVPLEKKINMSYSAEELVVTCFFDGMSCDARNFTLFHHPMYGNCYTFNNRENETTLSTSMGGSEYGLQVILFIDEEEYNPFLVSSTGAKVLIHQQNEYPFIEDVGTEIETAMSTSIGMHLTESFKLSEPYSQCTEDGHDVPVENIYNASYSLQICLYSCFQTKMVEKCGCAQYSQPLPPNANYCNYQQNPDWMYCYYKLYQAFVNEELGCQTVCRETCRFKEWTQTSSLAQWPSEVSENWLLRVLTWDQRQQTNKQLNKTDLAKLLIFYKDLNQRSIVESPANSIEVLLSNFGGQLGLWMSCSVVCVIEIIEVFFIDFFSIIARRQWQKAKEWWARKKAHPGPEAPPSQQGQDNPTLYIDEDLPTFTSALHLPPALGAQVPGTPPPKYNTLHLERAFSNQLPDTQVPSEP
# [2] = molecular target: T2, guinea pig δβγ-ENaC (Cavia porcellus, UniProt H0UT09+H0VJS1+H0VNV9); experiment: as above; type: cell-based; details: channel block; -60 mV; ORS 90 mM NaCl, pH 7.4, room temperature
# T2 construct: gene Scnn1d; heterotrimer in Xenopus laevis oocytes; δ with fused exons 11/12
# T2 sequence (H0VJS1 1-618): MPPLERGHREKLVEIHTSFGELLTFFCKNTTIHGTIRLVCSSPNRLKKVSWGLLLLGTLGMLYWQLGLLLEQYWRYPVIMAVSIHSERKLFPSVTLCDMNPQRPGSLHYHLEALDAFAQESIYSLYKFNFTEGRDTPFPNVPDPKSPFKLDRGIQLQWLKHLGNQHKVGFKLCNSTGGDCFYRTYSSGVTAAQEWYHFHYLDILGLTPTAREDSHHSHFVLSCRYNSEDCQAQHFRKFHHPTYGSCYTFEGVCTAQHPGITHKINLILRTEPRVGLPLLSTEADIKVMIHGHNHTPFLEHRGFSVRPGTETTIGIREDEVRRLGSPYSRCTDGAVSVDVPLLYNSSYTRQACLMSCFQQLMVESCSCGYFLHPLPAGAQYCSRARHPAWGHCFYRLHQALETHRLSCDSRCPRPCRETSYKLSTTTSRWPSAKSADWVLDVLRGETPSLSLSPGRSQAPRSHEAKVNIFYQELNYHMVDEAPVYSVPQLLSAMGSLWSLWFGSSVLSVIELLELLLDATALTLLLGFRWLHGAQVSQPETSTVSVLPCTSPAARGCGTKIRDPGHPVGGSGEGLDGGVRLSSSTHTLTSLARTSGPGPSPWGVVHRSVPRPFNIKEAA
# T2 sequence (H0VNV9 1-640): T1 sequence (H0VNV9 1-640)
# T2 sequence (H0UT09 1-653): T1 sequence (H0UT09 1-653)
structure (smiles),measurement,setting,value
N=C(N)NC(=O)c1nc(Cl)c(N)nc1N [amiloride],IC50,[1],150 ± 20 nM
same,IC50,[2],240 ± 50 nM
